Source: patent US11421194B2, “Pumpless platform for high-throughput dynamic multicellular culture and chemosensitivity evaluation” (Hackensack Meridian Health Center For Discovery and …, priority 2018, dated 2022)

System: MM.1S cells
Test: Chemosensitivity evaluation of MM.1S cells to bortezomib in the pumpless culture platform (LIVE/DEAD in situ staining, HCS)
Assay type: cell-based, human
Details: 4 h treatment, 24 h recovery
Experimental: The high-throughput capability of the pumpless culture platform was evaluated by studying the response of MM.1S cells to bortezomib at four different concentrations (0 nM, 5 nM, 10 nM, 20 nM). Bortezomib is a proteasome inhibitor that induces MM cell apoptosis.^29 Before introducing MM.1S cells, OSB were dynamically cultured for 4 days (in a CO2 incubator at […]). MM.1S cells were pre-labeled with 5 μM cell trace violet (Thermo Fisher Scientific), 10 μL MM.1S with a cell density of 4 million/ml were seeded into culture chambers ([…]). The device was then placed inside a CO2 incubator at 37° C. for 4 h to let MM.1S settle prior to starting the flow. Cells were co-cultured for another 24 h, and then treated with bortezomib for 4 h. After drug treatment, the medium was changed and cultures were allowed to recover for a 24 h period before analyses were conducted. MM.1S alone, cultured in the device but under static conditions were used as control.
Cell viability after treatment and recovery was determine as described above, using LIVE/DEAD Viability/Cytotoxicity Kit (0.1 μM calcein AM & 0.1 μM EthD-1). Culture chambers were scanned using HCS (CellInsight™ CX5, Thermo Fisher Scientific). Cell trace violet^+ calcein AM^+ cells were identified as live MM.1S and cell trace violet^+ EthD-1^+ cells were identified as dead cells, using pre-design CX5 software algorithms (HCS Studio 2.0 Cell Analysis Software) for cell quantification and rapid analysis.
Data quantification was performed automatically using the HCS Studio Software. The percentage of live (cell trace violet^+ calcein AM^+ cells/cell trace violet^+ cells) and dead (cell trace violet^+EthD-1^+/cell trace violet^+ cells) MM.1S cells were plotted against bortezomib concentration.

In the case of CC(C)C[C@H](NC(=O)[C@H](Cc1ccccc1)NC(=O)c1cnccn1)B(O)O [bortezomib], the viability at 0.005 µM (Homo sapiens, MM1.S, MM.1S cultured alone, static, bortezomib 5 nM, read-out: viability (percentage of live MM.1S: cell trace violet+ calcein AM+ cells/cell trace violet+ cells)) is reported as about 60%, the viability at 0.01 µM (Homo sapiens, MM1.S, MM.1S cultured alone, static, bortezomib 10 nM, read-out: viability (percentage of live MM.1S: cell trace violet+ calcein AM+ cells/cell trace violet+ cells)) is reported as about 15% and the “viability (percentage of live MM.1S: cell trace violet+ calcein AM+ cells/cell trace violet+ cells)” value (MM.1S in co-culture with OSB (hFOB 1.19), dynamic culture, bortezomib treatment range 0 nM to 10 nM) is reported as about 70%.
